Molecules are shown by their SMILES.

PRKAA2 (human), sequence (P54646 whole entry, looked up): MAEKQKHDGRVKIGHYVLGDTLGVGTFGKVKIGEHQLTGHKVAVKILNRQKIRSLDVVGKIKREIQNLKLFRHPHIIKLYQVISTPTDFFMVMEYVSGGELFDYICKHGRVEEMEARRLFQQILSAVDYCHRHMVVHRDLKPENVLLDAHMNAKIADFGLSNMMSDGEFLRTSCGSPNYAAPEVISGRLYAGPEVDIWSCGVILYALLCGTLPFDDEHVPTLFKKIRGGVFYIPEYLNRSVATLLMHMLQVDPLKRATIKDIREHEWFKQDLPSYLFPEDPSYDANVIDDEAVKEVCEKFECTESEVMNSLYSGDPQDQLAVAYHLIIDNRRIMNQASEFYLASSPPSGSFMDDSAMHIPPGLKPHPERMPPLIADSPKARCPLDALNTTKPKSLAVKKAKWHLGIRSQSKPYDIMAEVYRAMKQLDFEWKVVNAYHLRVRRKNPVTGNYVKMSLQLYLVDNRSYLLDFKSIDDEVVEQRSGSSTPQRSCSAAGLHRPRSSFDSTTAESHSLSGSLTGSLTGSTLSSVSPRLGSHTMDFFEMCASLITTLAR
FGFR1 (human), sequence (P11362 whole entry, looked up): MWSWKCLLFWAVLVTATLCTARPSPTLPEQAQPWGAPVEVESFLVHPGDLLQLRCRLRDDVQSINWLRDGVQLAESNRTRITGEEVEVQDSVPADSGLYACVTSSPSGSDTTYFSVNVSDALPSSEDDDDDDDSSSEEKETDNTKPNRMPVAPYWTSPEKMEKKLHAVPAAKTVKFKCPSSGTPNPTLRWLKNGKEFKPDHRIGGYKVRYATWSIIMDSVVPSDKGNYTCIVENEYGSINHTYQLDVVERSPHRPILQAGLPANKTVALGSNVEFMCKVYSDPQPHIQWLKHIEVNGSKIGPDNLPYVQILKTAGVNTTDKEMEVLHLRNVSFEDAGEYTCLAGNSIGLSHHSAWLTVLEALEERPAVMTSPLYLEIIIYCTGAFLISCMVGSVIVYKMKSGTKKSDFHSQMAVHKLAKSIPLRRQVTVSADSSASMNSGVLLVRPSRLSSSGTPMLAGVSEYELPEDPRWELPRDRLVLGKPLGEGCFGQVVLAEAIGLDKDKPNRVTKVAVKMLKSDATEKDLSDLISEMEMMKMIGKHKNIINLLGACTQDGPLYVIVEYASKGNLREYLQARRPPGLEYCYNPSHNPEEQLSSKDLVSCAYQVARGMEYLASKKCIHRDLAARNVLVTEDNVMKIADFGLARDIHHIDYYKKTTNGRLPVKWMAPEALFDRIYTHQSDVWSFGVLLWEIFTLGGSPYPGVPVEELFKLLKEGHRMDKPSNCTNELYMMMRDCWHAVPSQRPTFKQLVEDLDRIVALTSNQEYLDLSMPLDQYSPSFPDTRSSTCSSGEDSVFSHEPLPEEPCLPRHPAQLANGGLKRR

The target of the first assay is PRKAA1 (human) (UniProt Q13131). The following applies: compound 10.0 µM.
PRKAA1 (human), sequence (Q13131 whole entry, looked up): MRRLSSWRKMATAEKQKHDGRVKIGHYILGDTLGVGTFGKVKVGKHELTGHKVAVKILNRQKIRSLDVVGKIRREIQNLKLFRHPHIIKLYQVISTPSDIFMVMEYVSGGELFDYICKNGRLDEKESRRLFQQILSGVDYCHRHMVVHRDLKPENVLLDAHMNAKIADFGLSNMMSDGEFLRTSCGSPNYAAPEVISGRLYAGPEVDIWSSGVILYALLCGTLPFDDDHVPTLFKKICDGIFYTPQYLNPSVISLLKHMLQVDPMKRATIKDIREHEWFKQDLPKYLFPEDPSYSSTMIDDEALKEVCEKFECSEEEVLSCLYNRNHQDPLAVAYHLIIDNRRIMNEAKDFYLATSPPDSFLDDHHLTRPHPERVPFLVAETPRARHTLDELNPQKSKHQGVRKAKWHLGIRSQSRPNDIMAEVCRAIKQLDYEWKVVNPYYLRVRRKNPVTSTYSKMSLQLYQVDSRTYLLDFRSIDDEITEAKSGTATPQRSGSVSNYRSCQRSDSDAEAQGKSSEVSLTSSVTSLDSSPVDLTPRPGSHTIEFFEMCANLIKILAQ
What is called inhibition is the share of the control response that was lost under treatment. Higher therefore signals a response far below the control. Molecule `O=C(Nc1cc(C(F)(F)F)cc(C(F)(F)F)c1)c1cc(Cl)ccc1O` yielded an inhibition of 0%.

In the case of `Brc1c(Br)c(Br)c2[nH]nnc2c1Br`, the inhibition is 0%.

Molecule `O=c1cc(N2CCOCC2)oc2c1ccc1ccccc12` showed an inhibition of 0%.

Regarding `CC(C)[C@H](CO)Nc1nc(Nc2ccc(C(=O)O)c(Cl)c2)c2ncn(C(C)C)c2n1`, the inhibition stood at 0%.

Regarding `O=C1Nc2cc(Br)ccc2/C1=C1/Nc2ccccc2/C1=N\O`, the inhibition came to 7%.

`Cc1cc2nc3c(=O)[nH]c(=O)nc-3n(C)c2cc1C=O` came in with an inhibition of 0%.

The target in a further assay is AKT1 (human) (UniProt P31749). The following applies: compound 10.0 µM.
AKT1 (human), sequence (P31749 whole entry, looked up): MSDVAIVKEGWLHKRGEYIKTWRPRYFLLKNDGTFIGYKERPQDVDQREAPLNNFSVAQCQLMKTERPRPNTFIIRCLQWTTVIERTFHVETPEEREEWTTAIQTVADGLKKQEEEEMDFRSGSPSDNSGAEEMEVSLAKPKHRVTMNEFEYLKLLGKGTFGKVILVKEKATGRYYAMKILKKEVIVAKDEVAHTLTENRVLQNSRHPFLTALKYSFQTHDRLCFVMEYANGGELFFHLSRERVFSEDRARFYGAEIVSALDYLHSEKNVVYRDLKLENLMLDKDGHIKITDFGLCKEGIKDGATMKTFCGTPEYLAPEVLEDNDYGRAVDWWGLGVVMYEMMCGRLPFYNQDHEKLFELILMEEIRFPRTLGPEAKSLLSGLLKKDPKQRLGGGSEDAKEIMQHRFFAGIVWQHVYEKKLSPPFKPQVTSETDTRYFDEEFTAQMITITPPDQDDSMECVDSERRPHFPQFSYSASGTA
`O=C(Nc1cc(C(F)(F)F)cc(C(F)(F)F)c1)c1cc(Cl)ccc1O` came in with an inhibition of 0%.

The molecule `Brc1c(Br)c(Br)c2[nH]nnc2c1Br` showed an inhibition of 0%.

For the molecule `O=c1cc(N2CCOCC2)oc2c1ccc1ccccc12`, the inhibition amounted to 0%.

For the molecule `CC(C)[C@H](CO)Nc1nc(Nc2ccc(C(=O)O)c(Cl)c2)c2ncn(C(C)C)c2n1`, the inhibition stood at 0%.

`O=C1Nc2cc(Br)ccc2/C1=C1/Nc2ccccc2/C1=N\O` yielded an inhibition of 0%.

Take `Cc1cc2nc3c(=O)[nH]c(=O)nc-3n(C)c2cc1C=O`: the inhibition was 24%.

The next assay has as its target FGFR1 (human) (UniProt P11362). The settings on record: compound 10.0 µM.
In turn, `O=C(Nc1cc(C(F)(F)F)cc(C(F)(F)F)c1)c1cc(Cl)ccc1O` returned an inhibition of 0%.

Take `Brc1c(Br)c(Br)c2[nH]nnc2c1Br`: the inhibition came to 4%.

`O=c1cc(N2CCOCC2)oc2c1ccc1ccccc12` returned an inhibition of 4%.

As to `CC(C)[C@H](CO)Nc1nc(Nc2ccc(C(=O)O)c(Cl)c2)c2ncn(C(C)C)c2n1`, the inhibition stood at 59%.

Turning to `O=C1Nc2cc(Br)ccc2/C1=C1/Nc2ccccc2/C1=N\O`, the inhibition stood at 10%.

As for `Cc1cc2nc3c(=O)[nH]c(=O)nc-3n(C)c2cc1C=O`, the inhibition was determined as 22%.

The next assay deals with PIM1 (human) (UniProt P11309). The following applies: compound 10.0 µM.
PIM1 (human), sequence (P11309 whole entry, looked up): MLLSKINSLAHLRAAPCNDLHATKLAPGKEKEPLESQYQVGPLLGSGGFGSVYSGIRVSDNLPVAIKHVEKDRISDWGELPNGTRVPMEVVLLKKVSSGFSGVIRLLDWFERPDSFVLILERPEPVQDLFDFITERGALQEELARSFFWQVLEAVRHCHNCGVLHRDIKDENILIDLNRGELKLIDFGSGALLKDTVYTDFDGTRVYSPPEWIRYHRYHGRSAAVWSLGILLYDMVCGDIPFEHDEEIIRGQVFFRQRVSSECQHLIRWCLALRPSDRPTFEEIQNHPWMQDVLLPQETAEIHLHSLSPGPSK
For the molecule `O=C(Nc1cc(C(F)(F)F)cc(C(F)(F)F)c1)c1cc(Cl)ccc1O`, the inhibition worked out at 0%.

Take `Brc1c(Br)c(Br)c2[nH]nnc2c1Br`: the inhibition was 0%.

`O=c1cc(N2CCOCC2)oc2c1ccc1ccccc12`: the inhibition stood at 74%.

`CC(C)[C@H](CO)Nc1nc(Nc2ccc(C(=O)O)c(Cl)c2)c2ncn(C(C)C)c2n1` had an inhibition of 10%.

In the case of `O=C1Nc2cc(Br)ccc2/C1=C1/Nc2ccccc2/C1=N\O`, the inhibition was 0%.

Take `Cc1cc2nc3c(=O)[nH]c(=O)nc-3n(C)c2cc1C=O`: the inhibition is 23%.

Another assay has as its target PRKAA2 (human) (UniProt P54646). The following applies: compound 10.0 µM.
Molecule `O=C(Nc1cc(C(F)(F)F)cc(C(F)(F)F)c1)c1cc(Cl)ccc1O` gave an inhibition of 1%.

Take `Brc1c(Br)c(Br)c2[nH]nnc2c1Br`: the inhibition stood at 0%.

For the molecule `O=c1cc(N2CCOCC2)oc2c1ccc1ccccc12`, the inhibition amounted to 0%.

`CC(C)[C@H](CO)Nc1nc(Nc2ccc(C(=O)O)c(Cl)c2)c2ncn(C(C)C)c2n1` registered an inhibition of 0%.

For `O=C1Nc2cc(Br)ccc2/C1=C1/Nc2ccccc2/C1=N\O`, the inhibition was found to be 6%.

Consider `Cc1cc2nc3c(=O)[nH]c(=O)nc-3n(C)c2cc1C=O`, for which the inhibition turned out to be 0%.

In the next assay the test system is PRKACA (mouse). The following applies: compound 10.0 µM; accession and sequence are those of the human protein.
The molecule `O=C(Nc1cc(C(F)(F)F)cc(C(F)(F)F)c1)c1cc(Cl)ccc1O` displayed an inhibition of 0%.

In turn, `Brc1c(Br)c(Br)c2[nH]nnc2c1Br` came in with an inhibition of 0%.

As to `O=c1cc(N2CCOCC2)oc2c1ccc1ccccc12`, the inhibition turned out to be 0%.

`CC(C)[C@H](CO)Nc1nc(Nc2ccc(C(=O)O)c(Cl)c2)c2ncn(C(C)C)c2n1` gave an inhibition of 21%.

In the case of `O=C1Nc2cc(Br)ccc2/C1=C1/Nc2ccccc2/C1=N\O`, the inhibition is 2%.

In turn, `Cc1cc2nc3c(=O)[nH]c(=O)nc-3n(C)c2cc1C=O` registered an inhibition of 11%.

The values are drawn from the kinase profiling compilation of Christmann-Franck et al. (2016).
